Measured values reported in PMC12040169 (PLOS Biology, 2025).
Converted amounts (≈) assume the structure as drawn.

Tests used:
[1] = system: T1, CTL2-GFP (C. trachomatis L2/434/Bu, GFP-expressing); experiment: microbe, parasite or virus in culture; parameters: C. trachomatis growth in HeLa, dose-response, mean of bulk GFP fluorescence and imaged total inclusion area; conditions: Chlamydia trachomatis, HeLa, 28.5 h; mean of GFP and inclusion area
T1 construct: L2/434/Bu, GFP-expressing
Text: (§1) We screened a library of 36,785 small molecules displaying drug-like properties and covering a wide chemical space (Fig 1A and S2A Data). In this process, we also complemented the assay described above with an imaging-based readout (Fig 1B). After measurements of bulk GFP and resorufin fluorescence, cells were fixed, stained with the DNA dye Hoechst, and imaged at a high-content imaging platform to detect chlamydial inclusions (GFP) and host cell nuclei (Hoechst). The total area and number of inclusions in individual wells and the number of nuclei then served as additional proxies for chlamydial growth and host cell viability. […] MICs were calculated as described above.

[2] = system: T1, CTL2-GFP (C. trachomatis L2/434/Bu, GFP-expressing); experiment: microbe, parasite or virus in culture; parameters: species or system HeLa; C. trachomatis growth in HeLa, dose-response, mean of bulk GFP fluorescence and imaged total inclusion area; conditions: Chlamydia trachomatis, 28.5 h; mean of GFP and inclusion area
Text: as §1

[3] = in vitro; parameters: Viability of infected HeLa host cells, resazurin conversion, bulk resorufin fluorescence relative to DMSO; conditions: human, hela cells; bulk resorufin, mean of 3
[4] = in vitro; conditions: human, hela cells, % viability
[5] = system: HeLa; conditions: bulk resorufin, single well, 28.5 h, 10 µM, Bulk resorufin fluorescence

`Cc1ccc2[nH]c3c(c2c1)CCOC31CCN(Cc2ccccc2-c2ccccc2)CC1` [c22e] showed an IC50 [1] of 1.8 µM, an MIC [2] of 3.81 µM (≈ 1.61 µg/mL) and a viability at 28.5 h, 0.000416667 µM [3] of 98.6%. The viability at 28.5 h, 0.00125 µM [3] was 89.4%, the viability at 28.5 h, 0.00375 µM [3] was 94.8% and the viability at 28.5 h, 0.0123333 µM [3] was 87.6%. The viability at 28.5 h, 0.037 µM [3] was 94.6%, the viability at 28.5 h, 0.111 µM [3] was 86.6% and the viability at 28.5 h, 0.333 µM [3] was 87.8%. It also gave a viability at 28.5 h, 1 µM [3] of 85.7%, a viability at 28.5 h, 3 µM [3] of 85.7% and a viability at 28.5 h, 10 µM [3] of 86.9%. For the same compound, the viability at 28.5 h, 30 µM [3] was 70.7%.

`CC(=O)N1CCc2sccc2C1c1ccccc1NCc1ccoc1` (stereo not shown) [c28e] gave an IC50 [1] of 2.6 µM, an MIC [2] of 5.24 µM (≈ 1.85 µg/mL) and a viability at 28.5 h, 0.000416667 µM [3] of 92.9%. For the same compound, the viability at 28.5 h, 0.00125 µM [3] was 92.5%, the viability at 28.5 h, 0.00375 µM [3] was 86% and the viability at 28.5 h, 0.0123333 µM [3] was 93.2%. For the same compound, the viability at 28.5 h, 0.037 µM [3] was 90.6%, the viability at 28.5 h, 0.111 µM [3] was 89.2% and the viability at 28.5 h, 0.333 µM [3] was 86.1%. The viability at 28.5 h, 1 µM [3] was 90.6%, the viability at 28.5 h, 3 µM [3] was 82.6% and the viability at 28.5 h, 10 µM [3] was 87.9%. The viability at 28.5 h, 30 µM [3] was 83%.

In the case of `O=[N+]([O-])c1ccc(-n2cnc3ccccc32)c([N+](=O)[O-])c1` [c41e], the IC50 [1] is reported as 5.2 µM, the MIC [2] is reported as 11.2 µM (≈ 3.17 µg/mL) and the viability at 28.5 h, 0.000416667 µM [3] is reported as 99%. For the same compound, the viability at 28.5 h, 0.00125 µM [3] was 96.9%, the viability at 28.5 h, 0.00375 µM [3] was 102% and the viability at 28.5 h, 0.0123333 µM [3] was 101%. The viability at 28.5 h, 0.037 µM [3] was 104%, the viability at 28.5 h, 0.111 µM [3] was 97.8% and the viability at 28.5 h, 0.333 µM [3] was 104%. It also gave a viability at 28.5 h, 1 µM [3] of 99.3%, a viability at 28.5 h, 3 µM [3] of 99% and a viability at 28.5 h, 10 µM [3] of 101%. For the same compound, the viability at 28.5 h, 30 µM [3] was 96.3%.

For `CCOc1ccsc1C(=O)NC1Cc2ccccc2C1` [c16e], the IC50 [1] was 1.19 µM, the MIC [2] was 3.2 µM (≈ 0.92 µg/mL) and the viability at 28.5 h, 0.000416667 µM [3] was 89.7%. The viability at 28.5 h, 0.00125 µM [3] was 86.9%, the viability at 28.5 h, 0.00375 µM [3] was 89.9% and the viability at 28.5 h, 0.0123333 µM [3] was 85.4%. For the same compound, the viability at 28.5 h, 0.037 µM [3] was 87.1%, the viability at 28.5 h, 0.111 µM [3] was 85.4% and the viability at 28.5 h, 0.333 µM [3] was 87.5%. For the same compound, the viability at 28.5 h, 1 µM [3] was 84.6%, the viability at 28.5 h, 3 µM [3] was 84.5% and the viability at 28.5 h, 10 µM [3] was 84.3%. It also gave a viability at 28.5 h, 30 µM [3] of 87%.

For `CCCCc1ccc(NC(=N)Nc2nc(C)cc(C)n2)cc1` [c33e], the IC50 [1] was 3.25 µM, the MIC [2] was 11.7 µM (≈ 3.49 µg/mL) and the viability at 28.5 h, 0.000416667 µM [3] was 90.9%. The viability at 28.5 h, 0.00125 µM [3] was 88%, the viability at 28.5 h, 0.00375 µM [3] was 91.3% and the viability at 28.5 h, 0.0123333 µM [3] was 91.5%. The viability at 28.5 h, 0.037 µM [3] was 93.1%, the viability at 28.5 h, 0.111 µM [3] was 92.6% and the viability at 28.5 h, 0.333 µM [3] was 94.3%. The viability at 28.5 h, 1 µM [3] was 88.2%, the viability at 28.5 h, 3 µM [3] was 98.2% and the viability at 28.5 h, 10 µM [3] was 101%. The viability at 28.5 h, 30 µM [3] was 112%.

For `CCCCc1ccc(Nc2csc(N)n2)cc1` [c11e], the IC50 [1] was 0.956 µM, the MIC [2] was 3.11 µM (≈ 0.768 µg/mL) and the viability at 28.5 h, 0.000416667 µM [3] was 97.7%. It also gave a viability at 28.5 h, 0.00125 µM [3] of 95.9%, a viability at 28.5 h, 0.00375 µM [3] of 96.4% and a viability at 28.5 h, 0.0123333 µM [3] of 104%. For the same compound, the viability at 28.5 h, 0.037 µM [3] was 92.8%, the viability at 28.5 h, 0.111 µM [3] was 97.8% and the viability at 28.5 h, 0.333 µM [3] was 99.6%. The viability at 28.5 h, 1 µM [3] was 102%, the viability at 28.5 h, 3 µM [3] was 92.4% and the viability at 28.5 h, 10 µM [3] was 92.8%. For the same compound, the viability at 28.5 h, 30 µM [3] was 69.9%.

In the case of `CCC(c1ccc(F)cc1)N(C)C(=O)Cn1cc(C(=O)NC2CCCCC2)ccc1=O` (stereo not shown) [c44e], the IC50 [1] is reported as 5.83 µM, the viability at 28.5 h, 0.000416667 µM [3] is reported as 93.4% and the viability at 28.5 h, 0.00125 µM [3] is reported as 91.8%. The viability at 28.5 h, 0.00375 µM [3] was 93.8%, the viability at 28.5 h, 0.0123333 µM [3] was 89.2% and the viability at 28.5 h, 0.037 µM [3] was 90.8%. For the same compound, the viability at 28.5 h, 0.111 µM [3] was 86.7%, the viability at 28.5 h, 0.333 µM [3] was 87.7% and the viability at 28.5 h, 1 µM [3] was 85.4%. It also gave a viability at 28.5 h, 3 µM [3] of 87.9%, a viability at 28.5 h, 10 µM [3] of 83.2% and a viability at 28.5 h, 30 µM [3] of 87.2%.

For `Oc1ccccc1-c1cc(-c2cc3ccccc3o2)no1` [CBK019513], the viability at 28.5 h, 10 µM [4] was 113% and the % viability [5] was 117%.

With `O=S(=O)(Nc1ncc(Br)c2cccnc12)c1ccc(-c2ccccc2)cc1` [CBK073885] the viability at 28.5 h, 10 µM [4] was 98.8% and the % viability [5] was 110%.
